These results are taken from patent US20220016101A1 (ACADIA Pharmaceuticals Inc., priority 2018, published 2022).

The target in series [1] is alpha1 adrenergic receptor. Put plainly: Receptor profile: affinity (Ki) at α1. The class given is binding. The settings on record: other noteworthy target; data on file.
The target in series [2] is alpha2 adrenergic receptor. Particulars: read-out: affinity (Ki) α2; other noteworthy target; literature sources; cited from earlier work.
Series [3] addresses T1, 5-HT2C (Homo sapiens, UniProt P28335).
T1 sequence (P28335 33-458): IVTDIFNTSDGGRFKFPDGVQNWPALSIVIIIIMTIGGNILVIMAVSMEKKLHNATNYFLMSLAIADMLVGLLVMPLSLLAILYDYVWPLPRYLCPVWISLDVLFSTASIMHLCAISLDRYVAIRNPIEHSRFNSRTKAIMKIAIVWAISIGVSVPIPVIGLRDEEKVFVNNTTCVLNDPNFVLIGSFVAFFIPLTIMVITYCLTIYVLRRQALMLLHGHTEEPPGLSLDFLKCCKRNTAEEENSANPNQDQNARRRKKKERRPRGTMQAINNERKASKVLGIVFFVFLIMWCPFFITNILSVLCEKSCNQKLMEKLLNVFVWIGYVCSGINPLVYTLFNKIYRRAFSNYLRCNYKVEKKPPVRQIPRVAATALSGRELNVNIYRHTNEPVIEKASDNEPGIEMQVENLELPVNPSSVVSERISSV
Particulars: literature sources; read-out: affinity (Ki) 5-HT2C; cited from earlier work.

The next series addresses T2, 5-HT3 (Homo sapiens, UniProt P46098).
T2 sequence (P46098 24-478): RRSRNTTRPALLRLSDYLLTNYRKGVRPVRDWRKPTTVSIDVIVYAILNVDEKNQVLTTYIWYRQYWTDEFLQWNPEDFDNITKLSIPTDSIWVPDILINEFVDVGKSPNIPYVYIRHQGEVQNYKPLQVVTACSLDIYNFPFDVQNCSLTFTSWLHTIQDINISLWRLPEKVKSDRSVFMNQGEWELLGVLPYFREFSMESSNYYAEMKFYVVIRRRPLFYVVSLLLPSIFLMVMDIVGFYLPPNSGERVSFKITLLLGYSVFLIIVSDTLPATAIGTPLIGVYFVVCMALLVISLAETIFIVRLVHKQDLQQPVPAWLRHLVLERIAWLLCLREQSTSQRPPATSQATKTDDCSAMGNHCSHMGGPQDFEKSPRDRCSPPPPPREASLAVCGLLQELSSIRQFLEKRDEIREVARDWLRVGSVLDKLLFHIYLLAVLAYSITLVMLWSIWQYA
Particulars: other noteworthy target; literature sources; read-out: affinity (Ki) 5-HT3; cited from earlier work.

The next series addresses T3, D4 (Homo sapiens, UniProt P21917).
T3 sequence (P21917 1-419): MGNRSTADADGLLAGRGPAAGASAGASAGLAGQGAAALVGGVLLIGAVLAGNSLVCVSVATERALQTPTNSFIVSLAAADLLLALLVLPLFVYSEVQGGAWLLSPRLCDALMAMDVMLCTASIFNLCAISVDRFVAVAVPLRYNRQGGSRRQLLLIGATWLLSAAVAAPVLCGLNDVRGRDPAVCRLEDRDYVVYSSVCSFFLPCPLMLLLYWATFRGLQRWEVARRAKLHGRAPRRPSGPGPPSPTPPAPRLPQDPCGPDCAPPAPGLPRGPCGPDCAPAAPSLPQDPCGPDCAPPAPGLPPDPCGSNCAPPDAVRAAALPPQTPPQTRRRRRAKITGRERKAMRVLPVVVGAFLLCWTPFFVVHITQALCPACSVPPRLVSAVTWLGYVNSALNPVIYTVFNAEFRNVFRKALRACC
Particulars: other noteworthy target; literature sources; read-out: affinity (Ki) D4; cited from earlier work.

Series [4] has as its target T1, 5-HT2C. Put plainly: Receptor profile: affinity (Ki) at 5-HT2C. The class given is binding. The settings on record: data on file.
For the next series, the target named is serotonin transporter (Homo sapiens, UniProt P31645). Put plainly: Receptor profile: affinity (Ki) at SERT. The class given is binding. Particulars: data on file.
Sequence of serotonin transporter (P31645 whole entry): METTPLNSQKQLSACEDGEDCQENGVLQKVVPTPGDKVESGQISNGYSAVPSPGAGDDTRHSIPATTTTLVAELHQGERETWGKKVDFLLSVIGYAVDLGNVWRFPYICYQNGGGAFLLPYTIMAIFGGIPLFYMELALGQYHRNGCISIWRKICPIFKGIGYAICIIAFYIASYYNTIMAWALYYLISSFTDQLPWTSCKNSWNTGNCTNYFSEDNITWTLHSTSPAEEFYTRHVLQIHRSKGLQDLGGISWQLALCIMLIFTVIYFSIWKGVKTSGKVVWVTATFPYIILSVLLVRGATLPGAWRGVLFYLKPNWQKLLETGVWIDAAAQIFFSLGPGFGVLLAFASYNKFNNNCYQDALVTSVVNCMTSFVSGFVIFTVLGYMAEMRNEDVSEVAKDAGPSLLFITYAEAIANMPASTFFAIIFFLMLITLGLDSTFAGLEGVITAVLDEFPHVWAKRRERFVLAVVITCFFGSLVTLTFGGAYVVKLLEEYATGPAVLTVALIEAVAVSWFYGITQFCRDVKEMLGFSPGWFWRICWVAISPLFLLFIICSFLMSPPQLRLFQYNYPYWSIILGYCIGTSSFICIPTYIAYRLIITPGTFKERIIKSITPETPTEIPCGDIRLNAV
Series [5] has as its target norepinephrine transporter (Homo sapiens, UniProt P23975). Put plainly: Receptor profile: affinity (Ki) at NET. The class given is binding. Particulars: data on file.
A further series has as its target 5-HT2A (Homo sapiens, UniProt P28223). Put plainly: Receptor profile: affinity (Ki) at 5-HT2A. The class given is binding. The settings on record: data on file.
The next series has as its target dopamine transporter (Homo sapiens, UniProt Q01959). Put plainly: Receptor profile: affinity (Ki) at DAT. The class given is binding. Particulars: data on file.
Another series relates to patients with MDD. The settings on record: Baldwin et al (2013); printed as x to 1; cited from earlier work.

Where two headings read alike, the source gives them in different places.

Sequence of norepinephrine transporter (P23975 whole entry, species assumed): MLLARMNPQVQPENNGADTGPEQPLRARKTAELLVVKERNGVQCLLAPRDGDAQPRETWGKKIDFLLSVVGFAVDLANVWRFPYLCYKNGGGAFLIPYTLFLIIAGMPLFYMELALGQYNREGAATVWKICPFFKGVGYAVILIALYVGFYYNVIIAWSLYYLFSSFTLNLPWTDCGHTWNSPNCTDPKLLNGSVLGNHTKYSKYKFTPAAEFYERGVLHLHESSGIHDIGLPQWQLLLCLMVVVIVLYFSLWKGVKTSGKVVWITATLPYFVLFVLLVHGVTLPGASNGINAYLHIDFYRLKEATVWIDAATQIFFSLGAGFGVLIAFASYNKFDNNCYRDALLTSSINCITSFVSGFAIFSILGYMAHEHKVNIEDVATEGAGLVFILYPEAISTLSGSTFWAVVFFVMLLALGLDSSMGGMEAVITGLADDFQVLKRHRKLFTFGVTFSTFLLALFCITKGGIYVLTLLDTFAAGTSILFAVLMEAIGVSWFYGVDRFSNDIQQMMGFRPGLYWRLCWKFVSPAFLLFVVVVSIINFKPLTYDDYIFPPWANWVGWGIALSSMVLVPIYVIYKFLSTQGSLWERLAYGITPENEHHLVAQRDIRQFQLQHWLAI
Sequence of dopamine transporter (Q01959 whole entry): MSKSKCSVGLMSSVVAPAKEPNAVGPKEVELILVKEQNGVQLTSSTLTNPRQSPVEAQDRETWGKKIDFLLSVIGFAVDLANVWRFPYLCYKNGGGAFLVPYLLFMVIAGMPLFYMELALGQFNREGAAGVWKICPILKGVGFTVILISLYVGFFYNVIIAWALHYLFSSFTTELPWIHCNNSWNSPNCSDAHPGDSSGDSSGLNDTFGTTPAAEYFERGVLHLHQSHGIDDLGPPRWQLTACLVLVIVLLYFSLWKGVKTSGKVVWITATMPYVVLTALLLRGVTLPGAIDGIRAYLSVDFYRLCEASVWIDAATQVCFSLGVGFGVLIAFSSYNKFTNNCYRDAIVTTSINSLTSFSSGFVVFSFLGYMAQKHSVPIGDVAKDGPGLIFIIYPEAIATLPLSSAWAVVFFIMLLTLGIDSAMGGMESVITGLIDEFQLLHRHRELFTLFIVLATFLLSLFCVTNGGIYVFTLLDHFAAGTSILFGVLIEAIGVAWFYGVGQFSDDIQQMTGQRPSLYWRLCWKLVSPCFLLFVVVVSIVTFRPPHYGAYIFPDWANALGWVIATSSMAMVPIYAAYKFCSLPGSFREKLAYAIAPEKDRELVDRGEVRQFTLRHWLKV
Sequence of 5-HT2A (P28223 whole entry, species assumed): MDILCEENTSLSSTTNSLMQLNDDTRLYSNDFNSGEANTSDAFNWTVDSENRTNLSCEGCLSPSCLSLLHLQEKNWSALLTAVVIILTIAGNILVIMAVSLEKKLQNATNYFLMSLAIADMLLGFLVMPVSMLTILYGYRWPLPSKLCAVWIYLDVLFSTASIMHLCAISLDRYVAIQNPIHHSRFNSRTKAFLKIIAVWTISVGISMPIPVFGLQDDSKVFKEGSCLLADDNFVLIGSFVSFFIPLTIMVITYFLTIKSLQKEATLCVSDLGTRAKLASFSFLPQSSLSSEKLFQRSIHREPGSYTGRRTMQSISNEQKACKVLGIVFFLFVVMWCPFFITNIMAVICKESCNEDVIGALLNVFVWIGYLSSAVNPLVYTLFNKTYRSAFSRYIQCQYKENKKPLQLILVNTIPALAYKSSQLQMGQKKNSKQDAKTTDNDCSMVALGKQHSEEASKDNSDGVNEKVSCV

One may read the Ki as the dissociation constant of the complex between target and ligand, obtained from inhibition or displacement. Turning to `O=C(c1ccc(F)cc1)C1CCN(CCn2c(=O)[nH]c3ccccc3c2=O)CC1` [KET, ketanserin], the inhibition constant (Ki) in series [1] lay in the range of 15 to 20 nM.
Consider `CN1CCN2c3ncccc3Cc3ccccc3C2C1` (centres unmarked) [MIRT, mirtazapine], for which the Ki was 15 to 20 nM in [2], 40 nM at 5-HT2C [3] and 10 nM on 5-HT3.
For the compound `NC(=O)C1(N2CCCCC2)CCN(CCCC(=O)c2ccc(F)cc2)CC1` [PIP, pipamperone], the Ki at D4 was 5 nM; in series [2], 35 nM; at 5-HT2C [3], 120 nM.
With `N#Cc1c[nH]c2c(C(=O)N3CCN(CCc4ccc(F)cc4)CC3)cccc12` [PRUV, pruvanserin], the Ki at 5-HT2C [4] is greater than 1000 nM; on serotonin transporter it was greater than 1000 nM; in series [5], greater than 1000 nM; at 5-HT2A, 0.7 nM; at dopamine transporter, greater than 1000 nM.
In the case of `Cc1nc2sccn2c(=O)c1CCN1CCC(=C(c2ccc(F)cc2)c2ccc(F)cc2)CC1` [RIT, ritanserin], the inhibition constant Ki on 5-HT2C [4] is 3 nM; at serotonin transporter, greater than 1000 nM; in series [5] it was greater than 1000 nM; on dopamine transporter it was greater than 1000 nM.
`COc1ccc(C(CN(C)C)C2(O)CCCCC2)cc1` (centres unmarked) [venlafaxine]: the “odds ratio (drug to placebo) for sexual dysfunction” value with patients with MDD was 24.42.
